In patent US9315503B2, “Kinase inhibitors” (CHIESI FARMACEUTICI S.p.A., priority 2011, dated 2016):
Structures can show the parent of a compound that is named as a salt.

Columns and labels:
p38alpha = molecular target: T1, p38alpha (Homo sapiens, UniProt Q16539); test: P38Alpha enzyme inhibition assay (Alphascreen kinase activity assay); type: biochemical; details: 100 pM p38alpha, 250 μM ATP, 2 hours pre-incubation at 25° C., read-out: p38α inhibition (IC50 values)
T1 construct: purchased Invitrogen PV3304
T1 sequence (Q16539 whole entry): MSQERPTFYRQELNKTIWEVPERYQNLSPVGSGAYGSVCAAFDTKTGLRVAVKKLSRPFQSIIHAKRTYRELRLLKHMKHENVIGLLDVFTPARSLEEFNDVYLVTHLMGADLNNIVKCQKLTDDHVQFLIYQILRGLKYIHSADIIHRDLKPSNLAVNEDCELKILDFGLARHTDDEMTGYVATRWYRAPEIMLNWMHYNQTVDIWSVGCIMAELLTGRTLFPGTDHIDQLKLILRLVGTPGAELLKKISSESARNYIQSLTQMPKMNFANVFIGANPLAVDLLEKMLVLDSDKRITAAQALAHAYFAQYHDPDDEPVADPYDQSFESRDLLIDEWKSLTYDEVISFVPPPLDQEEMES
Outline: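 AlphaScreen read-out: after an EDTA stop, an anti-phospho-ATF2 antibody with Protein A acceptor and donor beads measured substrate phosphorylation. Compounds sat 2 h at 25°C with 100 pM p38α and 0.3 µg/ml ATF-2 fusion protein (pH 7.5, 1% DMSO) before 250 µM ATP was added for 1 h. IC50 from dose-response.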

[1] = system: LPS-stimulated TNFα release from PBMCs; test: LPS-stimulated PBMC TNFα release assay; type: cell-based; details: inhibition of TNFα release, human PBMCs, LPS 10 ng/ml, 18 h, ELISA, read-out: p38α inhibition (IC50 values)
Outline: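 TNFα in supernatants measured by ELISA after 18 h LPS (10 ng/ml) challenge of human PBMCs given 1 h compound pretreatment at 37 °C in medium with 1% FBS. Percent inhibition versus control release fitted to dose-response curves for IC50; at least three independent runs.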

Row | IC50 (p38alpha) [nM] | Compound | IC50 [1] [nM]
1 | < 10 | Cc1ccc(-n2nc(C(C)(C)C)cc2NC(=O)N[C@H]2CC[C@@H](Oc3ccc4nnc(N5CCCN(C)CC5)n4c3)c3ccccc32)cc1 [Example 69, 1-(5-tert-Butyl-2-p-tolyl-2H-pyrazol-3-yl)-3-{(1S,4R)-4-[3-(4-methyl-[1,4]diazepan-1-yl)-[1,2,4]triazolo[4,3-a]pyridin-6-yloxy]-1,2,3,4-tetrahydro-naphthalen-1-yl}urea] | < 10
2 | < 10 | CC(C)(C)c1cc(NC(=O)N[C@H]2CC[C@@H](Oc3ccc4nnc(N5CCCCC5)n4c3)c3ccccc32)n(-c2ccc(O)cc2)n1 [Example 70, 1-[5-tert-Butyl-2-(4-hydroxy-phenyl)-2H-pyrazol-3-yl]-3-[(1S,4R)-4-(3-piperidin-1-yl-[1,2,4]triazolo[4,3-a]pyridin-6-yloxy)-1,2,3,4-tetrahydro-naphthalen-1-yl]-urea] | < 10
3 | < 10 | CC(C)(C)c1cc(NC(=O)N[C@H]2CC[C@@H](Oc3ccc4nnc(N5CCCCC5)n4c3)c3ccccc32)n(-c2ccc(C#N)cc2)n1 [Example 71, 1-[5-tert-Butyl-2-(4-cyano-phenyl)-2H-pyrazol-3-yl]-3-[(1S,4R)-4-(3-piperidin-1-yl-[1,2,4]triazolo[4,3-a]pyridin-6-yloxy)-1,2,3,4-tetrahydro-naphthalen-1-yl]-urea] | < 10
4 | < 10 | Cc1ccc(-n2nc(C(C)(C)C)cc2NC(=O)N[C@H]2CC[C@@H](Oc3ccc4nnc(N5CCC(C(C)(C)O)CC5)n4c3)c3ccccc32)cc1 [Example 74, 1-(5-tert-Butyl-2-p-tolyl-2H-pyrazol-3-yl)-3-((1S,4R)-4-{3-[4-(1-hydroxy-1-methyl-ethyl)-piperidin-1-yl]-[1,2,4]triazolo[4,3-a]pyridin-6-yloxy}-1,2,3,4-tetrahydro-naphthalen-1-yl)-urea] | < 10
5 | < 10 | Cc1ccc(-n2nc(C(C)(C)C)cc2NC(=O)N[C@H]2CC[C@@H](Oc3ccc4nnc(N5CCCC5)n4c3)c3ccccc32)cc1 [Example 75, 1-(5-tert-Butyl-2-p-tolyl-2H-pyrazol-3-yl)-3-[(1S,4R)-4-(3-pyrrolidin-1-yl-[1,2,4]triazolo[4,3-a]pyridin-6-yloxy)-1,2,3,4-tetrahydro-naphthalen-1-yl]-urea] | < 10

Further lines, the molecule ahead of its results:

Row | Compound | IC50 (p38alpha) [nM] | IC50 [1] [nM]
6 | Cc1ccc(-n2nc(C(C)(C)C)cc2NC(=O)N[C@H]2CC[C@H](Oc3ccc4nnc([C@@H]5CCCN5C)n4c3)c3ccccc32)cc1 [Example 72, 1-(5-tert-Butyl-2-p-tolyl-2H-pyrazol-3-yl)-3-{(1S,4S)-4-[3-((S)-1-methyl-pyrrolidin-2-yl)-[1,2,4]triazolo[4,3-a]pyridin-6-yloxy]-1,2,3,4-tetrahydro-naphthalen-1-yl}-urea] | < 10 | < 10
7 | CN1CCC[C@H]1c1nnc2ccc(O[C@@H]3CC[C@H](NC(=O)Nc4cc(C(C)(C)C)nn4-c4ccc(O)cc4)c4ccccc43)cn12 [Example 73, 1-[5-tert-Butyl-2-(4-hydroxy-phenyl)-2H-pyrazol-3-yl]-3-{(1S,4R)-4-[3-((S)-1-methyl-pyrrolidin-2-yl)-[1,2,4]triazolo[4,3-a]pyridin-6-yloxy]-1,2,3,4-tetrahydro-naphthalen-1-yl}-urea] | < 10 | < 10
8 | Cc1ccc(-n2nc(C(C)(C)C)cc2NC(=O)N[C@H]2CC[C@@H](Oc3ccc4nnc(C(C)(C)N(C)C)n4c3)c3ccccc32)cc1 [Example 76, 1-(5-tert-Butyl-2-p-tolyl-2H-pyrazol-3-yl)-3-{(1S,4R)-4-[3-(1-dimethylamino-1-methyl-ethyl)-[1,2,4]triazolo[4,3-a]pyridin-6-yloxy]-1,2,3,4-tetrahydro-naphthalen-1-yl}-urea partial formate salt] | < 10 | < 10
